Test results reported in patent US20250205199A1, “5-METHOXY-N,N-[…][…] THE TREATMENT OF SOCIAL/EMOTIONAL […] DETACHMENT” (GH RESEARCH IRELAND LIMITED, priority 2022, published 2025).

Assays:
[1] = tested on: patients with treatment-resistant major depressive disorder (TRD); assay: Phase 1/2 clinical trial of inhaled 5-MeO-DMT in patients with TRD
Description: Patients were assigned to different groups. In the context of the present invention, the group who received a single, 12 mg dose and the group who underwent an intra-day individualized dosing regimen (IDR) that allowed for multiple, escalating doses (6 mg, 12 mg and 18 mg) within a single day, driven by the intensity of the patient-reported psychedelic experience are of interest.
The data gathered include the assessment of the treated patients against several scales including the Montgomery-Åsberg Depression Rating Scale (MADRS) and the Brief Psychiatric Rating Scale (BPRS).
This trial was designed in two parts. Part A was an open-label, single-arm, single-dose Phase 1 trial with two dose levels (12 mg (n=4) and 18 mg (n=4)). […] The primary endpoint of Part B was to assess the effects on the severity of depression, as assessed by the proportion of patients in remission on day seven after dosing, defined as a MADRS total score of less than or equal to 10.

[2] = tested on: patients with postpartum depression (PPD); assay: Clinical trial of inhaled 5-MeO-DMT in postpartum depression (one patient so far)
Description: The single-arm, open-label clinical trial will involve 15 adult female patients with clinically diagnosed postpartum depression (PPD).
The second dose (12 mg) will only be administered if: • a. […] The 6 mg dose was safe and well-tolerated according to the investigator, • c. Any psychoactive effects (PsE) of the prior dose have subsided, and • d. Pre-dose vital parameters and forced expiratory volume in one second (FEV1) are in normal range, or if outside of the normal range, are not clinically significant according to the investigator. • 3. Similarly, a third dose (18 mg) will only be administered if: • a. […] The 12 mg dose was safe and well-tolerated according to the investigator, and • c. Any PsE of the prior dose have subsided, and • d. Pre-dose vital parameters and forced expiratory volume in one second (FEV1) are in normal range, or if outside of the normal range, are not clinically significant according to the investigator.
The patients will be assessed for a peak psychedelic experience (based on a patient-scored visual analogue scale, the PE scale), sedation, and other endpoints after dosing. Follow-up visits are planned for Day 1, and Day 7 after the dosing day.
The following criteria must be met by all patients considered for clinical trial participation: • 1. Is female and in the age range between 18 and 45 years (inclusive) at screening. • 2. Has a body mass index (BMI) in the range of 18.5 and 35 kg/m^2 (inclusive) at screening. • 3. Meets the trial criteria for PPD as assessed by a trial psychiatrist or registered psychologist: • a. Diagnosis of Major Depressive Disorder without psychotic features, confirmed by the Mini-International Neuropsychiatric Interview (MINI), with peri-partum onset that began no earlier than gestation and no later than the first 4 weeks postpartum. • b. Has a Montgomery-Åsberg Depression Rating Scale (MADRS) total score of equal to or greater than 28 at screening and pre-dose on Day 0. • 6. […] Patients must have a negative pregnancy test at screening and on the pre-test day (Day −1). • 5. Is willing to delay start of other antidepressant or anxiety medication until after the end of the trial at Day 7 and agrees to keep any psychotherapy unchanged during the trial.
A potential patient who meets any of the following key exclusion criteria will be excluded from participation in this trial: • 1. Has, based on history, psychiatric assessment, and evaluation of the MINI, a current or prior diagnosis of bipolar disorder, a manic or hypomanic episode, a psychotic disorder, Major Depressive Disorder (MDD) or other mood disorder with psychotic features, obsessive compulsive disorder, post-traumatic stress disorder (PTSD), autism spectrum disorder, borderline personality disorder, schizophrenia, delusional disorder, paranoid personality disorder, schizoaffective disorder, clinically significant intellectual disability, or any other psychiatric comorbidity that renders the patient unsuitable for the trial according to the investigator's judgment. • 2. Has one or more first or second degree relatives with a current or previously diagnosed bipolar disorder, psychotic disorder or other mood disorder (including MDD) with psychotic features. • 3. Is in the judgement of a trial psychiatrist or registered psychologist, at significant risk for suicide based on history, psychiatric assessment, and evaluation of suicidal ideation and suicidal behaviour based on the Columbia-Suicide Severity Rating Scale (C-SSRS). • 4. Has taken anti-depressive medication within 14 days or 5 half-lives (whichever is longer) prior to dosing (exception: within the last 5 weeks in the case of fluoxetine). • 5.

[3] = Pharmacokinetics of 5-MeO-DMT and bufotenine after inhalation; format: in vivo, human; conditions: for Plasma concentration as % of Cmax: whole dose range tested (6 mg, 12 mg, 18 mg)
Description: This applies over the whole dose range tested (6 mg, 12 mg, 18 mg). […] Uptitration as disclosed herein will not lead to accumulation and thus not to higher plasma concentrations, for instance, 10 minutes, 2 hours, or 3 hours after administration.
Blood samples were obtained at 1; 2; 4; 7; 10; 15; 20; 30; 45 min and 1; 1.5; 2; 3; 4 hours after administration.
PK parameters were generated by algebraic analysis of the concentration versus time plots for each individual. The analysis was carried out using the software Phoenix WinNonlin 6.3.

[4] = oral; cited from earlier work
[5] = tested on: patients with treatment resistant bipolar depression; conditions: single 0.5 mg·kg^−1 infusion; cited from earlier work
[6] = 12 mg n=4, 2 hours after dose, baseline 16

COc1ccc2[nH]cc(CCN(C)C)c2c1 [5-MeO-DMT]
MADRS Suicidal Thoughts improvement ([1]; 12 mg n=4, 2 hours after dose, baseline 8): 5 points
MADRS Inner Tension improvement ([1]; 12 mg n=4, 2 hours after dose, baseline 13): 11
MADRS Concentration Difficulties improvement [1, 6]: 9
MADRS Inability to Feel improvement [1, 6]: 7 points
MADRS Lassitude improvement [1, 6]: 6
MADRS Pessimistic Thoughts improvement [1, 6]: 8
BPRS Blunted Affect improvement ([1]; 12 mg n=4, 3 hours after dose, baseline 11): 3 points
BPRS Emotional Withdrawal improvement ([1]; 12 mg n=4, 3 hours after dose, baseline 13): 2 points
BPRS Tension improvement ([1]; 12 mg n=4, 3 hours after dose, baseline 14): 5
BPRS Guilt Feelings improvement ([1]; 12 mg n=4, 3 hours after dose, baseline 18): 9
BPRS Anxiety improvement ([1]; 12 mg n=4, 3 hours after dose, baseline 25): 14
MADRS Inner Tension improvement ([1]; 12 mg n=4, day 1, baseline 13): 10
BPRS Tension improvement ([1]; 12 mg n=4, day 1, baseline 14): 8
MADRS Concentration Difficulties improvement ([1]; 12 mg n=4, day 1, baseline 16): 14
MADRS Lassitude improvement ([1]; 12 mg n=4, day 1, baseline 16): 16
MADRS Pessimistic Thoughts improvement ([1]; 12 mg n=4, day 1, baseline 16): 9
BPRS Guilt Feelings improvement ([1]; 12 mg n=4, day 1, baseline 18): 13
BPRS Anxiety improvement ([1]; 12 mg n=4, day 1, baseline 25): 19
MADRS Reduced Sleep percentage improvement ([1]; 12 mg n=4, day 7, baseline 12): 50.00%
MADRS Inner Tension improvement ([1]; 12 mg n=4, day 7, baseline 13): 8
BPRS Tension improvement ([1]; 12 mg n=4, day 7, baseline 14): 8
MADRS Concentration Difficulties improvement ([1]; 12 mg n=4, day 7, baseline 16): 13
MADRS Lassitude improvement ([1]; 12 mg n=4, day 7, baseline 16): 13
MADRS Pessimistic Thoughts improvement ([1]; 12 mg n=4, day 7, baseline 16): 8
BPRS Guilt Feelings improvement ([1]; 12 mg n=4, day 7, baseline 18): 13
BPRS Anxiety improvement ([1]; 12 mg n=4, day 7, baseline 25): 19
MADRS Suicidal Thoughts improvement ([1]; IDR n=8, 2 hours after last dose, baseline 11): 8 points
MADRS Inner Tension improvement ([1]; IDR n=8, 2 hours after last dose, baseline 26): 15
MADRS Lassitude improvement ([1]; IDR n=8, 2 hours after last dose, baseline 27): 17
MADRS Pessimistic Thoughts improvement ([1]; IDR n=8, 2 hours after last dose, baseline 28): 21
MADRS Concentration Difficulties improvement ([1]; IDR n=8, 2 hours after last dose, baseline 30): 19
MADRS Inability to Feel improvement ([1]; IDR n=8, 2 hours after last dose, baseline 36): 24 points
BPRS Emotional Withdrawal improvement ([1]; IDR n=8, 3 hours after last dose, baseline 13): 5 points
BPRS Blunted Affect improvement ([1]; IDR n=8, 3 hours after last dose, baseline 15): 4 points
BPRS Tension improvement ([1]; IDR n=8, 3 hours after last dose, baseline 16): 5
BPRS Guilt Feelings improvement ([1]; IDR n=8, 3 hours after last dose, baseline 34): 20
BPRS Anxiety improvement ([1]; IDR n=8, 3 hours after last dose, baseline 37): 18
BPRS Tension improvement ([1]; IDR n=8, day 1, baseline 16): 5
MADRS Reduced Sleep percentage improvement ([1]; IDR n=8, day 1, baseline 25): 52.00%
MADRS Inner Tension improvement ([1]; IDR n=8, day 1, baseline 26): 20
MADRS Lassitude improvement ([1]; IDR n=8, day 1, baseline 27): 22
MADRS Pessimistic Thoughts improvement ([1]; IDR n=8, day 1, baseline 28): 24
MADRS Concentration Difficulties improvement ([1]; IDR n=8, day 1, baseline 30): 29
BPRS Guilt Feelings improvement ([1]; IDR n=8, day 1, baseline 34): 23
BPRS Anxiety improvement ([1]; IDR n=8, day 1, baseline 37): 21
BPRS Tension improvement ([1]; IDR n=8, day 7, baseline 16): 6
MADRS Reduced Sleep percentage improvement ([1]; IDR n=8, day 7, baseline 25): 64.00%
MADRS Inner Tension improvement ([1]; IDR n=8, day 7, baseline 26): 14
MADRS Lassitude improvement ([1]; IDR n=8, day 7, baseline 27): 24
MADRS Pessimistic Thoughts improvement ([1]; IDR n=8, day 7, baseline 28): 25
MADRS Concentration Difficulties improvement ([1]; IDR n=8, day 7, baseline 30): 21
BPRS Guilt Feelings improvement ([1]; IDR n=8, day 7, baseline 34): 24
BPRS Anxiety improvement ([1]; IDR n=8, day 7, baseline 37): 20
SAEs ([1]; Part A): No SAEs
Patients with MADRS remission (total score <=10) ([1]; Part A, 12 mg n=4, day seven): 50%
Mean MADRS change from baseline ([1]; Part A, 12 mg, day seven): −21.0
Mean MADRS change from baseline, percent ([1]; Part A, 12 mg, day seven): −65%
Patients with MADRS remission (total score <=10) ([1]; Part A, 18 mg n=4, day seven): 25%
Mean MADRS change from baseline, percent ([1]; Part A, 18 mg, day seven): −41%
ECG (3 hours), safety laboratory analyses (7 days), CADSS (3 hours, 1 day, 7 days) [2]: unremarkable
Reported adverse events (cramping left abdominal pain and headache, Day 0) [2]: mild, short-lasting and resolved spontaneously
Tolerability of the inhalation procedure [2]: well tolerated with no inhalation-related adverse events
Total MADRS improvement ([2]; 2 hr, baseline 29): 24
Total MADRS score ([2]; 2 hr, baseline 29): 5
BPRS Tension improvement ([2]; Day 1, baseline 6): 5
Total MADRS improvement ([2]; Day 1, baseline 29): 29
Total MADRS score ([2]; Day 1, baseline 29): 0
BIMF item 16 (I worry about how other people judge me (as a mother)) score ([2]; Day 7, Day 0 score 3): 5
BIMF item 11 (I take a little time each week to do something for myself) score ([2]; Day 7, Day 0 score 5): 6
BIMF functional domain Adjustment score ([2]; Day 7, Day 0 score 5, maximum possible 12): 6
BIMF functional domain Self-Care score ([2]; Day 7, Day 0 score 9, maximum possible 18): 13
BIMF functional domain Infant Care score ([2]; Day 7, Day 0 score 12, maximum possible 12): 12
BIMF functional domain Mother-Child Interaction score ([2]; Day 7, Day 0 score 15, maximum possible 18): 17
BIMF functional domain Social Support score ([2]; Day 7, Day 0 score 17, maximum possible 18): 18
BIMF functional domain Management score ([2]; Day 7, Day 0 score 28, maximum possible 36): 33
BIMF functional domain Psychological Well-being score ([2]; Day 7, Day 0 score 44, maximum possible 60): 53
Total MADRS improvement ([2]; Day 7, baseline 29): 28
Total MADRS score ([2]; Day 7, baseline 29): 1
BIMF total score improvement ([2]; Day 7, from 92 to 105 of possible 120): 14%
BIMF TOTAL Δ (Day 7) ([2]; Day 7 vs Day 0): 13
BIMF functional domain Adjustment % Improvement ([2]; Day 7 vs Day 0): 20.00%
BIMF functional domain Infant Care % Improvement ([2]; Day 7 vs Day 0): 0.00%
BIMF functional domain Management % Improvement ([2]; Day 7 vs Day 0): 18%
BIMF functional domain Self-Care % Improvement ([2]; Day 7 vs Day 0): 44%
BPRS Tension improvement ([2]; Discharge, baseline 6): 5
Standard criteria for MADRS response (at least 50% improvement) and MADRS remission (total score <=10) ([2]; IDR 6 mg then 12 mg): fulfilled
Time to clinical remission after administration ([2]; IDR 6 mg then 12 mg): ≤ 2 h
Changes in vital parameters ([2]; except temporary, clinically non-relevant increase in heart rate and blood pressure shortly after administration): no other noteworthy changes in vital parameters
Plasma concentration as % of Cmax ([3]; 10 minutes after inhalation): ≤ 10%
Plasma concentration as % of Cmax ([3]; 2 hours after inhalation): ≤ 1%
Detectability in the plasma ([3]; 3 hours after inhalation, whole dose range tested): no longer detectable
Pharmacokinetic measurements under uptitration dosing schemes versus single doses ([3]; dosing schemes relying on uptitration): Substantially similar results

CN(C)CCc1c[nH]c2ccc(O)cc12 [bufotenine]
Bufotenine concentrations when subjects receiving an uptitration scheme were included ([3]; uptitration scheme): Substantially similar observations

CCN(CC)C(=O)[C@@H]1C=C2c3cccc4[nH]cc(c34)C[C@H]2N(C)C1 [LSD, lysergic acid diethylamide]
Duration of acute psychedelic effects [4]: several hours

CNC1(c2ccccc2Cl)CCCCC1=O (stereo not drawn) [ketamine]
Duration of the anti-anhedonic effect [5]: up to 14 days
Time until decrease of anhedonia took effect [5]: ≤ 40 min
